Source: ChEMBL document CHEMBL3608283, “Pyrrolopyridine or Pyrazolopyridine Derivatives” (ACS Med Chem Lett, 2015)
Changes are numbered by the printed parent chain. pEC50: −log10 of the molar value.

What was measured:
[1] = target: T1, Muscarinic acetylcholine receptor M1 (Homo sapiens, UniProt P11229); assay: Positive allosteric modulation of human muscarinic M1 receptor expressed in CHO cells assessed as basal and acetylcholine-stimulated Ca2+ level by FLIPR assay; type: functional, cell-based
T1 sequence (P11229 whole entry): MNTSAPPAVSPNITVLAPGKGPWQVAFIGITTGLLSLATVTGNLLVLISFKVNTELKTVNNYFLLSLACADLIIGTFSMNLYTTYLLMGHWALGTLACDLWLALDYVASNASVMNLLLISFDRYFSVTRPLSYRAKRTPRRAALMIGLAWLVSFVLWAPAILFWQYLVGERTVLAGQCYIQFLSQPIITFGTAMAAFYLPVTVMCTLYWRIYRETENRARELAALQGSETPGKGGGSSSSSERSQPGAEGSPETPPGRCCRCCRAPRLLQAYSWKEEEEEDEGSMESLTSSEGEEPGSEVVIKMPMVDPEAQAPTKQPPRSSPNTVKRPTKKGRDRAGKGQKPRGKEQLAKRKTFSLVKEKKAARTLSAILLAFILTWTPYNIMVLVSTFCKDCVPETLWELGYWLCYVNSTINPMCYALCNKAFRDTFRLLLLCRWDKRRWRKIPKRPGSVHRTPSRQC

[2] = target: T2, Muscarinic acetylcholine receptor M1 (Rattus norvegicus, UniProt P08482); assay: Positive allosteric modulation of rat muscarinic M1 receptor expressed in CHO cells assessed as basal and acetylcholine-stimulated Ca2+ level by FLIPR assay; type: functional, cell-based
T2 sequence (P08482 whole entry): T1 sequence (P11229 whole entry) with A5V, T254S, P309S, R320K, A337G, I413V

Row | SMILES | pEC50 [1] | pEC50 [2]
1 | Cn1cc(-c2ccc(Cn3cc(C(=O)N[C@H]4CCOC[C@@H]4O)c4ncccc43)c(F)c2)cn1 | 7.55 | 7.23
2 | Cn1cc(-c2ccc(Cn3cc(C(=O)N[C@H]4CCOC[C@@]4(C)O)c4ncccc43)c(F)c2)cn1 | 7.32 | 7.20
3 | Cn1ncc2cc(Cn3cc(C(=O)N[C@H]4COCC[C@@H]4O)c4ncccc43)ccc21 | 7.15 | 6.79
4 | Cn1cc(-c2ccc(Cn3cc(C(=O)N[C@H]4COCC[C@@H]4O)c4ncccc43)cc2)cn1 | 7.95 | 7.86
5 | Cn1cc(-c2ccc(Cn3cc(C(=O)N[C@H]4COCC[C@@H]4O)c4ncccc43)cn2)cn1 | 7.46 | 7.15
6 | Cn1cc(-c2ccc(Cn3cc(C(=O)N[C@H]4COCC[C@@H]4O)c4ncccc43)cc2F)cn1 | 7.81 | 7.74
7 | CNC(=O)c1ccc(Cn2cc(C(=O)N[C@H]3COCC[C@@H]3O)c3ncccc32)cc1 | 8.04 | 7.74
